Results on 20 compounds are retold here after patent US9802918B2, “Pyridineamine compounds useful as Pim kinase inhibitors” (Incyte Corporation, priority 2015, dated 2017).

Type in all cases: biochemical
The target of one assay is Pim-1 (Homo sapiens (Human), UniProt P11309). The experiment in a line: Pim-1 kinase assay. As to conditions: 1 mM ATP; read-out: Pim1 IC50. The procedure: Supplementation of the STOP buffer with beads and stopping the reactions were done under reduced light. Prior to the stopping reactions STOP buffer with beads was preincubated for 1 h in the dark at room temperature. After stopping the reactions, plates were incubated for 1 h in the dark at room temperature before reading on a PHERAstar FS plate reader (BMG Labtech) under reduced light.
Sequence of Pim-1 (P11309 whole entry): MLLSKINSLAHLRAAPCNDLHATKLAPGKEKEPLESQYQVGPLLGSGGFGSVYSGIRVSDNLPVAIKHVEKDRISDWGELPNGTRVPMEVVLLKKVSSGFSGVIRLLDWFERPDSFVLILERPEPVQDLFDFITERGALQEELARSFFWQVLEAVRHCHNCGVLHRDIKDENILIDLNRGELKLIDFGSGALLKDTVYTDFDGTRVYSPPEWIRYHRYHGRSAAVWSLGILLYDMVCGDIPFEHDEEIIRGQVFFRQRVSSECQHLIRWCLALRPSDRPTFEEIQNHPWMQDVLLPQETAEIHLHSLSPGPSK

For the next assay, the target named is Pim-2 (Homo sapiens (Human), UniProt Q9P1W9). The experiment in a line: Pim-2 kinase assay. As to conditions: 1 mM ATP; read-out: Pim2 IC50. In a few lines:
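Pim-2 (1 nM) with fluorescein-CREBtide ([…]) and 1 mM ATP in Tris pH 7.5, MgCl2, DTT buffer, 2 h at 25 °C. Stopped with EDTA plus Tb-anti-CREB pSer133 antibody; phosphorylation read by TR-FRET after 30 min.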

In the next assay the target is Pim-3 (Homo sapiens (Human), UniProt Q86V86). The experiment in a line: Pim-3 kinase assay. As to conditions: 1 mM ATP; read-out: Pim3 IC50. In a few lines: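 Human Pim-3 at 1.25 pM phosphorylated […] biotin-BAD peptide with 1 mM ATP for 1 h at 25° C, in pH 7.5 Tris buffer with 5 mM MgCl2 and 5 mM DTT. Reactions were stopped with EDTA buffer containing phospho-Bad (Ser112) antibody and AlphaScreen donor/acceptor beads. Plates were read after 1 h dark incubation at room temperature.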

Molecules are shown by their SMILES.

Sequence of Pim-2 (Q9P1W9 whole entry): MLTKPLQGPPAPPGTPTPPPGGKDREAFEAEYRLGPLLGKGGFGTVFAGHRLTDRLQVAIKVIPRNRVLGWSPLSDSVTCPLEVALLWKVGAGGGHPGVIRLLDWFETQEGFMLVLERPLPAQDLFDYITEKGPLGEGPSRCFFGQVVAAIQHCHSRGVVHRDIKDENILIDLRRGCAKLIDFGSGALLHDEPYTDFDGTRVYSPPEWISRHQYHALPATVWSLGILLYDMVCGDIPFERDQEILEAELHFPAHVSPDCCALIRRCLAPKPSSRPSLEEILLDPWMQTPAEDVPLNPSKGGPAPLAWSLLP

Regarding `C[C@@H]1C[C@H](N)CN(c2ccncc2NCc2ccc(F)c(-c3c(F)cc(CN4CC[C@@H](C#N)C4)cc3F)n2)C1` [Example 53, (R)-1-(4-(6-((4-((3S,5R)-3-amino-5-methylpiperidin-1-yl)pyridin-3-ylamino)methyl)-3-fluoropyridin-2-yl)-3,5-difluorobenzyl)pyrrolidine-3-carbonitrile], the IC50 is under 10 nM on Pim-1, at most 100 nM on Pim-2 and at most 10 nM at Pim-3.
For `C[C@@H]1C[C@H](N)CN(c2ccncc2NCc2ccc(F)c(-c3c(F)cc(CN4CC[C@H](C#N)C4)cc3F)n2)C1` [Example 54, (S)-1-(4-(6-((4-((3S,5R)-3-amino-5-methylpiperidin-1-yl)pyridin-3-ylamino)methyl)-3-fluoropyridin-2-yl)-3,5-difluorobenzyl)pyrrolidine-3-carbonitrile], in that order: under 10 nM, at most 100 nM and at most 10 nM.
The like results for `C[C@@H]1C[C@H](N)CN(c2ccncc2NCc2ccc(F)c(-c3c(F)cc(CN4CC[C@@H](F)C4)cc3F)n2)C1` [Example 55, 4-((3S,5R)-3-amino-5-methylpiperidin-1-yl)-N-((6-(2,6-difluoro-4-(((R)-3-fluoropyrrolidin-1-yl)methyl)phenyl)-5-fluoropyridin-2-yl)methyl)pyridin-3-amine] were, in that order, under 10 nM, at most 100 nM and at most 10 nM.
The like results for `C[C@@H]1C[C@H](N)CN(c2ccncc2NCc2ccc(F)c(-c3c(F)cc(CN4CC[C@H](F)C4)cc3F)n2)C1` [Example 56, 4-((3S,5R)-3-amino-5-methylpiperidin-1-yl)-N-((6-(2,6-difluoro-4-(((S)-3-fluoropyrrolidin-1-yl)methyl)phenyl)-5-fluoropyridin-2-yl)methyl)pyridin-3-amine] were, in that order, under 10 nM, at most 100 nM and at most 10 nM.
On to `C[C@H]1CN(c2ccncc2NCc2ccc(F)c(C3=CCCCC3)n2)C[C@@H](N)[C@@H]1O` [Example 57], for which the IC50 is under 10 nM at Pim-1, 100 to 1000 nM on Pim-2 and at most 10 nM at Pim-3.
Turning to `C[C@@H]1C[C@H](N)CN(c2ccncc2NCc2ccc(F)c(C3CCCCC3)n2)C1` [Example 58, 4-[(3S,5R)-3-Amino-5-methylpiperidin-1-yl]-N-[(6-cyclohexyl-5-fluoropyridin-2-yl)methyl]pyridin-3-amine], the concentration for half-maximal inhibition (IC50) at Pim-1 is under 10 nM; at Pim-2, 100 to 1000 nM; at Pim-3 it was 10 to 50 nM.
For `COC1(c2cc(F)c(-c3nc(CNc4cnccc4N4C[C@@H](N)[C@H](O)[C@@H](C)C4)ccc3F)c(F)c2)CCOCC1` [Example 59, (3R,4R,5S)-3-Amino-1-{3-[({6-[2,6-difluoro-4-(4-methoxytetrahydro-2H-pyran-4-yl)phenyl]-5-fluoropyridin-2-yl}methyl)amino]pyridin-4-yl}-5-methylpiperidin-4-ol], in that order: under 10 nM, 100 to 1000 nM and at most 10 nM.
For `COC1(c2cc(F)c(-c3nc(CNc4cnccc4N4C[C@H](C)C[C@H](N)C4)ccc3F)c(F)c2)CCOCC1` [Example 60, 4-[(3S,5R)-3-Amino-5-methylpiperidin-1-yl]-N-({6-[2,6-difluoro-4-(4-methoxytetrahydro-2H-pyran-4-yl)phenyl]-5-fluoropyridin-2-yl}methyl)pyridin-3-amine], in that order: under 10 nM, 100 to 1000 nM and at most 10 nM.
For `C[C@H]1CN(c2ccncc2NCc2ccc(F)c(-c3c(F)cc(C4(F)CCOCC4)cc3F)n2)C[C@@H](N)[C@@H]1O` [Example 61, (3R,4R,5S)-3-Amino-1-{3-[({6-[2,6-difluoro-4-(4-fluorotetrahydro-2H-pyran-4-yl)phenyl]-5-fluoropyridin-2-yl}methyl)amino]pyridin-4-yl}-5-methylpiperidin-4-ol], in that order: under 10 nM, at most 100 nM and at most 10 nM.
For the compound `C[C@@H]1C[C@H](N)CN(c2ccncc2NCc2ccc(F)c(-c3c(F)cc(C4(F)CCOCC4)cc3F)n2)C1` [Example 62, 4-[(3S,5R)-3-Amino-5-methylpiperidin-1-yl]-N-({6-[2,6-difluoro-4-(4-fluorotetrahydro-2H-pyran-4-yl)phenyl]-5-fluoropyridin-2-yl}methyl)pyridin-3-amine], the IC50 at Pim-1 was under 10 nM; at Pim-2, at most 100 nM; at Pim-3 it was at most 10 nM.
In the case of `C[C@H]1CN(c2ccncc2NCc2ccc(F)c(-c3c(F)cc(C4CCOCC4)cc3F)n2)C[C@@H](N)[C@@H]1O` [Example 63, (3R,4R,5S)-3-Amino-1-{3-[({6-[2,6-difluoro-4-(tetrahydro-2H-pyran-4-yl)phenyl]-5-fluoropyridin-2-yl}methyl)amino]pyridin-4-yl}-5-methylpiperidin-4-ol], the IC50 on Pim-1 was under 10 nM; on Pim-2 it was at most 100 nM; on Pim-3, at most 10 nM.
For `C[C@@H]1C[C@H](N)CN(c2ccncc2NCc2ccc(F)c(-c3c(F)cc(C4CCOCC4)cc3F)n2)C1` [Example 64, 4-[(3S,5R)-3-Amino-5-methylpiperidin-1-yl]-N-({6-[2,6-difluoro-4-(tetrahydro-2H-pyran-4-yl)phenyl]-5-fluoropyridin-2-yl}methyl)pyridin-3-amine], in that order: under 10 nM, at most 100 nM and at most 10 nM.
The like results for `N[C@H]1C[C@@H](C(F)(F)F)CN(c2ccncc2NCc2ccc(F)c(-c3c(F)cc(C4CCOCC4)cc3F)n2)C1` [Example 65, 4-((3S,5R)-3-Amino-5-(trifluoromethyl)piperidin-1-yl)-N-((6-(2,6-difluoro-4-(tetrahydro-2H-pyran-4-yl)phenyl)-5-fluoropyridin-2-yl)methyl)pyridin-3-amine] were, in that order, under 10 nM, at most 100 nM and at most 10 nM.
The like results for `C[C@@H]1C[C@H](N)C[C@H](c2ccncc2NCc2ccc(F)c(-c3c(F)cccc3F)n2)C1` [Example 66, 4-[(1R,3S,5S)-3-Amino-5-methylcyclohexyl]-N-{[6-(2,6-difluorophenyl)-5-fluoropyridin-2-yl]methyl}pyridin-3-amine] were, in that order, under 10 nM, 100 to 1000 nM and at most 10 nM.
For the compound `C[C@@H]1C[C@H](N)C[C@H](c2ccncc2NCc2ccc(F)c(-c3c(F)cc(C4(O)CCC4)cc3F)n2)C1` [Example 67, 1-(4-{6-[({4-[(1R,3S,5S)-3-Amino-5-methylcyclohexyl]pyridin-3-yl}amino)methyl]-3-fluoropyridin-2-yl}-3,5-difluorophenyl)cyclobutanol], the IC50 is under 10 nM on Pim-1, 100 to 1000 nM on Pim-2 and at most 10 nM on Pim-3.
The like results for `C[C@@H]1C[C@H](N)C[C@H](c2ccncc2NCc2ccc(F)c(-c3c(F)cc(N4CCOCC4)cc3F)n2)C1` [Example 68, 4-[(1R,3S,5S)-3-Amino-5-methylcyclohexyl]-N-{[6-(2,6-difluoro-4-morpholin-4-ylphenyl)-5-fluoropyridin-2-yl]methyl}pyridin-3-amine] were, in that order, under 10 nM, 100 to 1000 nM and at most 10 nM.
For `C[C@@H]1C[C@H](N)CN(c2ccncc2NCc2nc(-c3c(F)cccc3F)sc2N)C1` [Example 69, N-{[5-Amino-2-(2,6-difluorophenyl)-1,3-thiazol-4-yl]methyl}-4-[(3S,5R)-3-amino-5-methylpiperidin-1-yl]pyridin-3-amine], in that order: under 10 nM, 1000 to 10000 nM and at most 10 nM.
For `C[C@@H]1C[C@H](N)CN(c2ccncc2NCc2ccc(F)c(-c3c(F)cc(N4CC[C@@H](F)C4)cc3F)n2)C1` [Example 70, 4-[(3S,5R)-3-Amino-5-methylpiperidin-1-yl]-N-[(6-{2,6-difluoro-4-[(3R)-3-fluoropyrrolidin-1-yl]phenyl}-5-fluoropyridin-2-yl)methyl]pyridin-3-amine], in that order: under 10 nM, 100 to 1000 nM and at most 10 nM.
Turning to `C[C@@H]1C[C@H](N)CN(c2ccncc2NCc2ccc(F)c(-c3c(F)cc(N4CCCC(F)C4)cc3F)n2)C1` (stereo partly drawn) [Example 71, 4-[(3S,5R)-3-Amino-5-methylpiperidin-1-yl]-N-({6-[2,6-difluoro-4-(3-fluoropiperidin-1-yl)phenyl]-5-fluoropyridin-2-yl}methyl)pyridin-3-amine], the IC50 on Pim-1 was under 10 nM; on Pim-2, at most 100 nM; on Pim-3, at most 10 nM.
The like results for `C[C@@H]1C[C@H](N)CN(c2ccncc2NCc2ccc(F)c(-c3c(F)cc(N4CC(C)(O)C4)cc3F)n2)C1` [Example 72, 1-(4-{6-[({4-[(3S,5R)-3-Amino-5-methylpiperidin-1-yl]pyridin-3-yl}amino)methyl]-3-fluoropyridin-2-yl}-3,5-difluorophenyl)-3-methylazetidin-3-ol] were, in that order, under 10 nM, at most 100 nM and at most 10 nM.
